Source: patent US8309552B2, “Immunomodulating heterocyclic compounds” (Medigene AG, priority 2003, dated 2012)
pEC50: −log10 of the molar value. Read-outs that look alike come from different tables or passages of the source.

Target: T1, CD80-CD28 interaction (Homo sapiens, UniProt P33681)
T1 sequence (P33681 35-242 limits assumed): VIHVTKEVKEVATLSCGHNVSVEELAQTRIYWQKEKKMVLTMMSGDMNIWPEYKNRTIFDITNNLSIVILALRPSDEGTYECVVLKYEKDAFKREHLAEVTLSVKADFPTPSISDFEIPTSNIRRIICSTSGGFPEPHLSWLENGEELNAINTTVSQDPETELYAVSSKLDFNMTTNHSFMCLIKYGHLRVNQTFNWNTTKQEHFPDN
Assay: Homogenous Time Resolved Fluorescence (HTRF) assay, cell free
Format: binding
Conditions: concentration series 100 μM-1.7 nM, 4 hours at room temperature, read-out: Activity (EC50 in the HTRF assay)
How it was run: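 Europium and APC labels were linked through antibodies to CD28 and CD80 fusion proteins. Compounds were tested at 100 μM-1.7 nM for 4 h at room temperature in 50 mM Tris-HCl, 150 mM NaCl pH7.8, 0.1% BSA. Emission read at 665 and 615 nm (excitation 340 nm); non-specific signal measured with C215 Fab in place of CD80; EC50 reported in bands.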

Row | Structure (SMILES) | pEC50 (cell free HTRF assay) | pEC50 (cell-free HTRF)
1 | Cc1ccccc1CCNC(=O)c1ccc(-n2[nH]c3c(nnc4c(F)cccc43)c2=O)cc1 [Example 366] | 5.00 to 6.00 | –
2 | O=C(NCCc1ccccc1Br)c1ccc(-n2[nH]c3c(nnc4c(F)cccc43)c2=O)cc1 [Example 368] | 5.00 to 6.00 | –
3 | O=C(NCCc1c(F)cccc1Cl)c1ccc(-n2[nH]c3c(nnc4c(F)cccc43)c2=O)cc1 [Example 369] | 5.00 to 6.00 | –
4 | O=C(NCCc1ccc(Cl)cc1Cl)c1ccc(-n2[nH]c3c(nnc4c(F)cccc43)c2=O)cc1 [Example 370] | 5.00 to 6.00 | –
5 | O=C(NCCc1c(Cl)cccc1Cl)c1ccc(-n2[nH]c3c(nnc4c(F)cccc43)c2=O)cc1 [Example 371] | 5.00 to 6.00 | –
6 | O=C(NCCc1ccc(Cl)c(Cl)c1)c1ccc(-n2[nH]c3c(nnc4c(F)cccc43)c2=O)cc1 [Example 372] | 5.00 to 6.00 | –
7 | O=C(NCCc1cccc(F)c1)c1ccc(-n2[nH]c3c(nnc4c(F)cccc43)c2=O)cc1 [Example 373] | 5.00 to 6.00 | –
8 | CC1(C)CC(NC(=O)c2ccc(-n3[nH]c4c(nnc5c(F)cccc54)c3=O)cc2)CC(C)(C)N1 [Example 374] | > 6.00 | –
9 | CC(C)(C)NC(=O)c1ccc(-n2[nH]c3c(nnc4c(F)cccc43)c2=O)cc1 [Example 375] | > 6.00 | –
10 | C=CCNC(=O)c1ccc(-n2[nH]c3c(nnc4c(F)cccc43)c2=O)cc1 [Example 377] | > 6.00 | –
11 | CC(C)(C)c1ccc(CN2CCC(NC(=O)c3ccc(-n4[nH]c5c(nnc6c(F)cccc65)c4=O)cc3)CC2)cc1 [Example 378] | > 6.00 | –
12 | CS(=O)(=O)c1ccc(CN2CCC(NC(=O)c3ccc(-n4[nH]c5c(nnc6c(F)cccc65)c4=O)cc3)CC2)cc1 [Example 380] | > 6.00 | –
13 | CCCCNCCNC(=O)c1ccc(-n2[nH]c3c(nnc4ccc(F)cc43)c2=O)cc1 [Example 384] | > 6.00 | –
14 | CC(C)NCCCNC(=O)c1ccc(-n2[nH]c3c(nnc4ccc(F)cc43)c2=O)cc1 [Example 385] | > 6.00 | –
15 | O=C(NCCCCO)c1ccc(-n2[nH]c3c(nnc4ccc(F)cc43)c2=O)cc1 [Example 386] | > 6.00 | –
16 | CN(C)CCCNC(=O)c1ccc(-n2[nH]c3c(nnc4cccc(F)c43)c2=O)cc1 [Example 387] | > 6.00 | –
17 | O=C(NCCCCN1CCCC1)c1ccc(-n2[nH]c3c(nnc4cccc(F)c43)c2=O)cc1 [Example 388] | > 6.00 | –
18 | O=C(NCCCNC1CCCCC1)c1ccc(-n2[nH]c3c(nnc4cccc(F)c43)c2=O)cc1 [Example 389] | > 6.00 | –
19 | CN1C(C)(C)CC(NC(=O)c2ccc(-n3[nH]c4c(nnc5cccc(F)c54)c3=O)cc2)CC1(C)C [Example 390] | > 6.00 | –
20 | CN1CCC(NC(=O)c2ccc(-n3[nH]c4c(nnc5cccc(F)c54)c3=O)cc2)CC1 [Example 391] | > 6.00 | –
21 | CCN(CC)CCCNC(=O)c1ccc(-n2[nH]c3c(nnc4cccc(F)c43)c2=O)cc1 [Example 392] | > 6.00 | –
22 | O=C(NCCCN1CCCC1)c1ccc(-n2[nH]c3c(nnc4cccc(F)c43)c2=O)cc1 [Example 393] | > 6.00 | –
23 | CC1CCCCN1CCCNC(=O)c1ccc(-n2[nH]c3c(nnc4cccc(F)c43)c2=O)cc1 (centres unmarked) [Example 394] | > 6.00 | –
24 | CC(C)NCCCNC(=O)c1ccc(-n2[nH]c3c(nnc4cccc(F)c43)c2=O)cc1 [Example 395] | > 6.00 | –

Row | Structure (SMILES) | pEC50 (cell free HTRF assay) | pEC50 (cell-free HTRF)
25 | CNCCCNC(=O)c1ccc(-n2[nH]c3c(nnc4cccc(F)c43)c2=O)cc1 [Example 396] | > 6.00 | –
26 | O=C(NCCCN1CCOCC1)c1ccc(-n2[nH]c3c(nnc4cccc(F)c43)c2=O)cc1 [Example 397] | > 6.00 | –
27 | CCCCN(CCCC)CCCNC(=O)c1ccc(-n2[nH]c3c(nnc4cccc(F)c43)c2=O)cc1 [Example 398] | > 6.00 | –
28 | O=C(NC1CCN(Cc2ccccc2)C1)c1ccc(-n2[nH]c3c(nnc4cccc(F)c43)c2=O)cc1 (centres unmarked) [Example 399] | > 6.00 | –
29 | CC(C)(C)NC(=O)c1ccc(-n2[nH]c3c(nnc4cccc(F)c43)c2=O)cc1 [Example 400] | > 6.00 | –
30 | O=C(NC1CN2CCC1CC2)c1ccc(-n2[nH]c3c(nnc4cccc(F)c43)c2=O)cc1 (centres unmarked) [Example 401] | > 6.00 | –
31 | O=C(c1ccc(-n2[nH]c3c(nnc4cccc(F)c43)c2=O)cc1)N1CCC(N2CCCCC2)CC1 [Example 402] | 5.00 to 6.00 | –
32 | CC1(C)CC(NC(=O)c2ccc(-n3[nH]c4c(nnc5cccc(F)c54)c3=O)cc2)CC(C)(C)N1 [Example 403] | > 6.00 | –
33 | CN(C)CC(C)(C)CNC(=O)c1ccc(-n2[nH]c3c(nnc4cccc(F)c43)c2=O)cc1 [Example 404] | > 6.00 | –
34 | NC1CCC(NC(=O)c2ccc(-n3[nH]c4c(nnc5cccc(F)c54)c3=O)cc2)CC1 (centres unmarked) [Example 405] | > 6.00 | –
35 | Cc1ccc2nnc3c(=O)n(-c4ccc(C(=O)NCCCN(C)C)cc4)[nH]c3c2c1 [Example 406] | > 6.00 | –
36 | Cc1ccc2nnc3c(=O)n(-c4ccc(C(=O)NCCCNC5CCCCC5)cc4)[nH]c3c2c1 [Example 407] | > 6.00 | –
37 | Cc1ccc2nnc3c(=O)n(-c4ccc(C(=O)NC5CC(C)(C)N(C)C(C)(C)C5)cc4)[nH]c3c2c1 [Example 408] | > 6.00 | –
38 | Cc1ccc2nnc3c(=O)n(-c4ccc(C(=O)NCCCCN5CCCC5)cc4)[nH]c3c2c1 [Example 409] | > 6.00 | –
39 | NC1CCC(NC(=O)c2ccc(-n3[nH]c4c(nnc5c(F)cccc54)c3=O)cc2)CC1 (centres unmarked) [Example 410] | > 6.00 | –
40 | CN(C)CCCNC(=O)c1ccc(-n2[nH]c3c(nnc4c(Cl)cccc43)c2=O)cc1 [Example 411] | > 6.00 | –
41 | O=C(NCCCNC1CCCCC1)c1ccc(-n2[nH]c3c(nnc4c(Cl)cccc43)c2=O)cc1 [Example 412] | > 6.00 | –
42 | O=C(NCCCCN1CCCC1)c1ccc(-n2[nH]c3c(nnc4c(Cl)cccc43)c2=O)cc1 [Example 413] | > 6.00 | –
43 | CN(C)CCCNC(=O)c1ccc(-n2[nH]c3c(nnc4c(F)cc(F)cc43)c2=O)cc1 [Example 414] | > 6.00 | –
44 | O=C(NCCCNC1CCCCC1)c1ccc(-n2[nH]c3c(nnc4c(F)cc(F)cc43)c2=O)cc1 [Example 415] | > 6.00 | –
45 | O=C(NCCCCN1CCCC1)c1ccc(-n2[nH]c3c(nnc4c(F)cc(F)cc43)c2=O)cc1 [Example 416] | > 6.00 | –
46 | CNCCCNC(=O)c1ccc(-n2[nH]c3c(nnc4ccc(OC)cc43)c2=O)cc1 [Example 418] | > 6.00 | –
47 | O=C(NCCCCN1CCSCC1)c1ccc(-n2[nH]c3c(nnc4c(F)cccc43)c2=O)cc1 [Example 419] | > 6.00 | –
48 | CN(C)CC(C)(C)CNC(=O)c1ccc(-n2[nH]c3c(nnc4c(F)cccc43)c2=O)cc1 [Example 420] | > 6.00 | –

Row | Structure (SMILES) | pEC50 (cell free HTRF assay) | pEC50 (cell-free HTRF)
49 | O=C(c1ccc(-n2[nH]c3c(nnc4c(F)cccc43)c2=O)cc1)N1CCC(N2CCCCC2)CC1 [Example 421] | 5.00 to 6.00 | –
50 | O=C(NC1CCC1)c1ccc(-n2[nH]c3c(nnc4c(F)cccc43)c2=O)cc1 [Example 424] | > 6.00 | –
51 | O=C(NC1CCCC1)c1ccc(-n2[nH]c3c(nnc4c(F)cccc43)c2=O)cc1 [Example 425] | > 6.00 | –
52 | O=C(NCCF)c1ccc(-n2[nH]c3c(nnc4c(F)cccc43)c2=O)cc1 [Example 426] | > 6.00 | –
53 | CN1C(C)(C)CC(NC(=O)c2ccc(-n3[nH]c4c(nnc5ccc(F)cc54)c3=O)cc2)CC1(C)C [Example 427] | > 6.00 | –
54 | CNCCCNC(=O)c1ccc(-n2[nH]c3c(nnc4c(F)ccc(F)c43)c2=O)cc1 [Example 428] | > 6.00 | –
55 | O=C(NCCCCN1CCCC1)c1ccc(-n2[nH]c3c(nnc4c(F)ccc(F)c43)c2=O)cc1 [Example 430] | > 6.00 | –
56 | CN1C(C)(C)CC(NC(=O)c2ccc(-n3[nH]c4c(nnc5c(F)ccc(F)c54)c3=O)cc2)CC1(C)C [Example 431] | > 6.00 | –
57 | CCN(C)CCCCNC(=O)c1ccc(-n2[nH]c3c(nnc4c(F)cccc43)c2=O)cc1 [Example 432] | > 6.00 | –
58 | O=C(NCCCCN1CCOCC1)c1ccc(-n2[nH]c3c(nnc4c(F)cccc43)c2=O)cc1 [Example 434] | > 6.00 | –
59 | C=CCN(C)CCCCNC(=O)c1ccc(-n2[nH]c3c(nnc4c(F)cccc43)c2=O)cc1 [Example 435] | > 6.00 | –
60 | CN(CCCCNC(=O)c1ccc(-n2[nH]c3c(nnc4c(F)cccc43)c2=O)cc1)C1CCCCC1 [Example 436] | > 6.00 | –
61 | O=C(NCCCCF)c1ccc(-n2[nH]c3c(nnc4c(F)cccc43)c2=O)cc1 [Example 437] | – | > 6.00
62 | CN(CCCNC(=O)c1ccc(-n2[nH]c3c(nnc4c(F)cccc43)c2=O)cc1)c1ccccc1 [Example 438] | – | 5.00 to 6.00
63 | CC1CC(C)(C)C(CNC(=O)c2ccc(-n3[nH]c4c(nnc5c(F)cccc54)c3=O)cc2)C1N (centres unmarked) [Example 439] | – | > 6.00
64 | O=C(NC1CCNCC1)c1ccc(-n2[nH]c3c(nnc4c(F)cccc43)c2=O)cc1 [Example 440] | – | > 6.00
65 | CC(N)C(C)CNC(=O)c1ccc(-n2[nH]c3c(nnc4c(F)cccc43)c2=O)cc1 (centres unmarked) [Example 443] | – | > 6.00
66 | O=C(NCC1CCNCC1)c1ccc(-n2[nH]c3c(nnc4c(F)cccc43)c2=O)cc1 [Example 444] | – | > 6.00
67 | NCCCNC(=O)c1ccc(-n2[nH]c3c(nnc4c(F)cccc43)c2=O)cc1 [Example 445] | – | > 6.00
68 | CN(C)CCCNC(=O)c1ccc(-n2[nH]c3c(nnc4ccc(Cl)cc43)c2=O)cc1 [Example 446] | – | > 6.00
69 | CN1C(C)(C)CC(NC(=O)c2ccc(-n3[nH]c4c(nnc5ccc(Cl)cc54)c3=O)cc2)CC1(C)C [Example 447] | – | > 6.00
70 | O=C(NCCCCN1CCCC1)c1ccc(-n2[nH]c3c(nnc4ccc(Cl)cc43)c2=O)cc1 [Example 449] | – | > 6.00
71 | CCNC(=O)c1ccc(-n2[nH]c3c(nnc4c(F)cccc43)c2=O)cc1 [Example 450] | – | > 6.00
